One assay deals with T1, ICE (Homo sapiens, UniProt P29466).
T1 sequence (P29466 120-297 limits assumed): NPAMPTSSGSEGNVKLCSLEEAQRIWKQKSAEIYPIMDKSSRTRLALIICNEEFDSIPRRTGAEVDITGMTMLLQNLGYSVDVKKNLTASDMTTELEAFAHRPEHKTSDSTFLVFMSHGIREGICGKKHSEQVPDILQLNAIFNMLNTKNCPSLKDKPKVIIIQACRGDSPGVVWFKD
T1 sequence (P29466 317-404 limits assumed): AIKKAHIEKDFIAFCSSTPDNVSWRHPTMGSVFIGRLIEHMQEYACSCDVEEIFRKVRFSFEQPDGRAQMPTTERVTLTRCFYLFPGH
Kind of assay: Enzyme assay with UV-visible substrate (visible ICE assay, Succinyl-Tyr-Val-Ala-Asp-pNitroanilide). In kind it is biochemical. In outline: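 Read-out is the rate of pNA chromophore release (mOD/min, linear fit) monitored at 405-603 nm over 20 min at 37° C. Substrate was succinyl-Tyr-Val-Ala-Asp-pNitroanilide, added after a 15 min room-temperature preincubation of ICE with inhibitor.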

Assay [1] deals with IL-1β, human peripheral blood mononuclear cells (PBMC). In words: PBMC cell assay: IL-1β assay with human PBMC or enriched adherent mononuclear cells, LPS-stimulated. In kind it is cell-based. In outline:
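Buffy-coat human PBMC at 6×10^6 cells/ml, or adherent monocytes enriched by 1 h adherence (2.5−3.0×10^5 cells/well), are given 5–6 compound dilutions bracketing the ICE Ki (final DMSO 0.1%) plus LPS at a final 5 ng/ml. They are incubated 16–18 hr at 37 °C, 5% CO2, and supernatant mature IL-1β is measured by ELISA, with duplicate cultures and duplicate ELISAs.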

The mark [2] stands for this setting: Homo sapiens, PBMC, * = values obtained upon reassay.
Setting [3] is: * = values obtained upon reassay.

What is called Ki is the dissociation constant of the complex between target and ligand, obtained from inhibition or displacement. Lower therefore signals higher affinity. The IC50 is the concentration at which inhibition is half-maximal. For the compound `O=C[C@H](CC(=O)O)NC(=O)CN1C(=O)[C@@H](NC(=O)c2nccc3ccccc23)CN(C(=O)CO)c2ccccc21` [Compound 696, (3S)-3-[(3S)-2-Oxo-3-(isoquinolin-1-oyl)amino-5-hydroxyacetyl-2,3,4,5-tetrahydro-1H-1,5-benzodiazepine-1-acetylamino]-4-oxo-butyric acid], the affinity on ICE (Table 17) corresponds to a Ki of 4.5 nM. The same compound gave a half-maximal inhibitory concentration (IC50) in assay [1] (Homo sapiens, PBMC, Table 17) of 2000 nM. `COc1c(Cl)cc(C(=O)N[C@H]2CCC(=O)N3CCC[C@@H](C(=O)N[C@H](C=O)CC(=O)O)N3C2=O)cc1Cl` [Compound 214m]: the Ki at ICE (Table 17) is 1.5 nM. For the same compound, the IC50 in assay [1] (Homo sapiens, PBMC, Table 17) is 530 nM. As for `CC(=O)Nc1cccc(C(=O)N[C@H]2CCC(=O)N3CCC[C@@H](C(=O)N[C@H](C=O)CC(=O)O)N3C2=O)c1` [Compound 450, [3S(1S,9S)]3-{9-[(3-Acetamido)benzamido]-6,10-dioxo-1,2,3,4,7,8,9,10-octahydro-6H-pyridazino[1,2-a][1,2]diazepine-1-carboxamido}-4-oxobutanoic acid], affinity on ICE (Table 5) was put at a Ki of 5 nM. This compound also gave a half-maximal inhibitory concentration (IC50) in assay [1] (setting [2]) of 800 nM. For the compound `CCOC(=O)C[C@H](NC(=O)[C@@H]1CCCN2C(=O)CC[C@H](NC(=O)c3ccccc3)C(=O)N12)C(OCC)OCC` [Compound 2100b], the affinity at ICE (Table 5), expressed as Ki, was 8000 nM. Also, the half-inhibitory concentration (IC50) in assay [1] (setting [2]) was more than 20000 nM. On to `O=C(O)C[C@H](NC(=O)[C@@H]1CCCN2C(=O)CC[C@H](NC(=O)OCc3ccccc3)C(=O)N12)C(=O)COC(=O)c1c(Cl)cccc1Cl` [Compound 217d, [3S(1S,9S)]3-(9-Benzyloxycarbonylamino-6,10-dioxo-1,2,3,4,7,8,9,10-octahydro-6H-pyridazino[1,2-a][1,2]-diazepine-1-carboxamido)-5-(2,6-dichlorobenzoyloxy)-4-oxopentanoic acid], for which the IC50 in assay [1] (setting [2]) amounted to 340 nM.

With `CS(=O)(=O)N[C@H]1CCC(=O)N2CCC[C@@H](C(=O)N[C@@H](CC(=O)O)C(=O)COC(=O)c3c(Cl)cccc3Cl)N2C1=O` [Compound 138], in assay [1] (setting [2]), the midpoint of inhibition, the IC50, lay at 900 nM. `CC(=O)N[C@H]1CCC(=O)N2CCC[C@@H](C(=O)N[C@@H](CC(=O)O)C(=O)COC(=O)c3c(Cl)cccc3Cl)N2C1=O` [Compound 217c, [3S(1S,9S)]3-(9-Acetylamino-6,10-dioxo-1,2,3,4,7,8,9,10-octahydro-6H-pyridazino-[1,2-a][1,2]diazepine-1-carboxamido)-5-(2,6-dichlorobenzoyloxy)-4-oxopentanoic acid]: in assay [1] (setting [2]), the midpoint of inhibition, the IC50, lay at 1700 nM. The compound `O=C[C@H](CC(=O)O)NC(=O)[C@@H]1CCCN2C(=O)CC[C@H](NC(=O)c3ccc4c(c3)OCO4)C(=O)N12` [Compound 415, [3S(1S,9S)]3-[6,10-Dioxo-9-(3,4-methylenedioxybenzoylamino)-1,2,3,4,7,8,9,10-octahydro-6H-pyridazino[1,2-a][1,2]diazepine-1-carboxamido]-4-oxobutanoic acid] showed an inhibitory constant (Ki) on ICE (Table 5) of 2.5 nM. In addition, the IC50 in assay [1] (setting [3]) came out at 1000 nM; in assay [1] (setting [2]), 990 nM. With `CC(=O)Nc1ccc(C(=O)N[C@H]2CCC(=O)N3CCC[C@@H](C(=O)N[C@H](C=O)CC(=O)O)N3C2=O)cc1Cl` [Compound 214l, [3S(1S,9S)]3-(9-(3-Chloro-4-acetamidobenzoyl)amino-6,10-dioxo-1,2,3,4,7,8,9,10-octahydro-6H-pyridazino[1,2-a][1,2]diazepine-1-carboxamido)-4-oxobutanoic acid], the inhibition constant Ki on ICE (Table 17) came to 6 nM. This compound registered an IC50 in assay [1] (Homo sapiens, PBMC, Table 17) of 1900 nM. Compound `CC(C)OC(=O)C[C@H](NC(=O)[C@@H]1CCCN2C(=O)CC[C@H](NC(=O)c3ccccc3)C(=O)N12)C(OC(C)C)OC(C)C` [Compound 2100d] returned a Ki on ICE (Table 5) of more than 100000 nM. Also, in assay [1] (setting [2]), the IC50 is more than 20000 nM.

For `CC(C)C(=O)Nc1ccc(C(=O)N[C@H]2CCC(=O)N3CCC[C@@H](C(=O)N[C@H](C=O)CC(=O)O)N3C2=O)cc1` [Compound 484], the Ki on ICE (Table 5) was found to be 2 nM. Besides, the figures for the IC50 in assay [1] (setting [3]) and in assay [1] (setting [2]) were 1400 nM and 1550 nM, respectively. `O=C(O)C[C@H](NC(=O)[C@@H]1CCCN2C(=O)CC[C@H](NC(=O)c3ccccc3)C(=O)N12)C(=O)COc1cccnc1` [Compound 283, [3S(1S,9S)]3-[9-Benzoylamino-6,10-dioxo-1,2,3,4,7,8,9,10-octahydro-6H-pyridazino[1,2-a][1,2]diazepine-1-carboxamido]-4-oxo-5-(3-pyridyloxy)pentanoic acid]: the IC50 in assay [1] (setting [2]) was less than 200 nM. In assay [1] (setting [2]), `COC(=O)N[C@H]1CCC(=O)N2CCC[C@@H](C(=O)N[C@@H](CC(=O)O)C(=O)COC(=O)c3c(C)cccc3C)N2C1=O` [Compound 285, [3S(1S,9S)]5-(2,6-Dimethylbenzoyloxy)-3-[6,10-dioxo-9-(methoxycarbonyl)amino-1,2,3,4,7,8,9,10-octahydro-6H-pyridazino[1,2-a][1,2]diazepine-1-carboxamido]-4-oxopentanoic acid] had an IC50 of 810 nM. For `O=C(O)CC(NC(=O)[C@@H]1CCCN2C(=O)CC[C@H](NC(=O)c3ccccc3)C(=O)N12)C(=O)CF` (stereo partly drawn) [Compound 230e, [3RS,(1S,9S)]3-(9-Benzoylamino-6,10-dioxo-1,2,3,4,7,8,9,10-octahydro-6H-pyridazino[1,2-a][1,2]-diazepine-1-carboxamido)-5-fluoro-4-oxopentanoic acid], the IC50 in assay [1] (setting [3]) was found to be 325 nM.

For the compound `O=C(O)C[C@H](NC(=O)[C@@H]1CCCN2C(=O)CC[C@H](NC(=O)CCc3ccccc3)C(=O)N12)C(=O)CSCc1ccccc1Cl` [Compound 125b, [3S(1S,9S)]-3-(6,10-dioxo-1,2,3,4,7,8,9,10-octahydro)-9-(3-phenylpropionyl-amino)-6H-pyridazine[1,2-a][1,2]diazepine-1-carboxamido-5-(2-chlorophenyl-methylthio)-4-oxopentanoic acid], in assay [1] (setting [2]), the half-maximal inhibitory concentration (IC50) came out at 800 nM. As to `CS(=O)(=O)N[C@H]1CCC(=O)N2CCC[C@@H](C(=O)N[C@@H](CC(=O)O)C(=O)COC(=O)c3cccc4ccccc34)N2C1=O` [Compound 286, [3S(1S,9S)]3-(6,10-Dioxo-9-methanesulphonylamino-1,2,3,4,7,8,9,10-octahydro-6H-pyridazino[1,2-a][1,2]diazepine-1-carboxamido)-5-(1-naphthoyloxy)-4-oxopentanoic acid], the 50% inhibitory concentration (IC50) in assay [1] (Table 18) came out at 300 nM. For the compound `O=C(O)C[C@H](NC(=O)[C@@H]1CCCN2C(=O)CC[C@H](NC(=O)CCc3ccccc3)C(=O)N12)C(=O)COC(=O)c1c(Cl)cccc1Cl` [Compound 136], in assay [1] (setting [2]), the IC50 came to 870 nM. Turning to `O=C(O)C[C@H](NC(=O)[C@@H]1CCCN2C(=O)CC[C@H](NC(=O)c3ccccc3)C(=O)N12)C(=O)COC(=O)c1c(Cl)cccc1Cl` [Compound 217e, [3S(1S,9S)]3-(9-Benzoylamino-6,10-dioxo-1,2,3,4,7,8,9,10-octahydro-6H-pyridazino[1,2-a][1,2]-diazepine-1-carboxamido)-5-(2,6-dichlorobenzoyloxy)-4-oxopentanoic acid], the IC50 in assay [1] (setting [2]) worked out at 175 nM.

The compound `COc1cccc2nc(C(=O)[C@H](CC(=O)O)NC(=O)[C@@H]3CCCN4C(=O)CC[C@H](NC(=O)CCc5ccccc5)C(=O)N34)oc12` [Compound 135a] gave an IC50 in assay [1] (setting [2]) of 2800 nM. Regarding `O=C[C@H](CC(=O)O)NC(=O)[C@@H]1CCCN2C(=O)CC[C@H](NC(=O)CCc3ccccc3)C(=O)N12` [Compound 47a, [3S(1S,9S)]3-(6,10-Dioxo-octahydro-9-(3-phenylpropionylamino)-6H-pyridazino[1,2-a][1,2]diazepine-1-carboxamido)-4-oxobutanoic acid], the midpoint of inhibition in assay [1] (setting [2]), the IC50, lay at 2600 nM. The compound `O=C(O)C[C@H](NC(=O)[C@@H]1CCCN2C(=O)CC[C@H](NC(=O)c3ccccc3)C(=O)N12)C(=O)CSc1nnnn1-c1ccccc1` [Compound 280, [3S(1S,9S)]3-(9-Benzoylamino-6,10-dioxo-1,2,3,4,7,8,9,10-octahydro-6H-pyridazino[1,2-a][1,2]diazepine-1-carboxamido)-4-oxo-5(1-phenyl-1H-tetrazole-5-thio)pentanoic acid] yielded an IC50 in assay [1] (setting [2]) of 650 nM.

The compound “[3S(1S,9S)]3-[(6,10-Dioxo-9-(methanesulphonylamino)-1,2,3,4,7,8,9,10-octahydro-6H-pyridazino[1,2-a][1,2]diazepine-1-carboxamido]-5-(5-methyl-3-phenylisoxazoyloxy)-4-oxopentanoic acid [505 b]” yielded a concentration for half-maximal inhibition (IC50) in assay [1] (Table 18) of 1500 nM. For `CS(=O)(=O)N[C@H]1CCC(=O)N2CCC[C@@H](C(=O)N[C@@H](CC(=O)O)C(=O)COC(=O)c3sccc3Cl)N2C1=O` [505 e, [3S(1S,9S)]5-(3-Chlorothien-2-oyloxy)-3-(6,10-dioxo-9-methanesulphonylamino-1,2,3,4,7,8,9,10-octahydro-6H-pyridazino[1,2-a][1,2]diazepine-1-carboxamido)-4-oxopentanoic acid], in assay [1] (Table 18), it took 9000 nM to reach half-maximal inhibition (IC50). The compound `O=C(O)C[C@H](NC(=O)[C@@H]1CCCN2C(=O)CC[C@H](NC(=O)CCc3ccccc3)C(=O)N12)C(=O)c1ncc(-c2c(Cl)cccc2Cl)o1` [Compound 137] gave an IC50 in assay [1] (setting [2]) of 1700 nM. With `COC(=O)N[C@H]1CCC(=O)N2CCC[C@@H](C(=O)N[C@@H](CC(=O)O)C(=O)COC(=O)c3c(Cl)cccc3Cl)N2C1=O` [Compound 284, [3S(1S,9S)]5-(2,6-Dichlorobenzoyloxy)-3-[6,10-dioxo-9-(methoxycarbonyl)amino-1,2,3,4,7,8,9,10-octahydro-6H-pyridazino[1,2-a][1,2]diazepine-1-carboxamido]-4-oxopentanoic acid], in assay [1] (setting [2]), the IC50 was found to be 470 nM.

Source of the values: patent publication US20120165319A1, “INHIBITORS OF INTERLEUKIN-1 BETA CONVERTING ENZYME” (VERTEX PHARMACEUTICALS INCORPORATED, priority 1995, published 2012).
